Experimental data taken from ChEMBL document CHEMBL1129240, “Synthesis of acyclo-C-nucleosides in the imidazo[1,2-a]pyridine and pyrimidine series as antiviral agents” (J Med Chem, 1996).
Values after ≈ are worked out from the molar mass of the structure shown.

Columns and labels:
[1] = Cytotoxic concentration required to reduce CEM cell viability by 50%; format: cell-based; conditions: human, CCRF-CEM (CEM) cells
Human alphaherpesvirus 3 [2] = assay: Minimum Inhibitory Concentration (MIC) for activity against Varicella-Zoster Virus(VZV) using OKA (TK+) strain; format: functional
[3] = Cytotoxic concentration required to cause microscopically detectable alteration of normal cell morphology of E6SM cells; format: cell-based; conditions: human, read-out: CC50
Cytomegalovirus [4] = assay: Minimum Inhibitory Concentration (MIC) tested for activity against Cytomegalovirus (CMV) using Davis strain; format: functional; conditions: Human betaherpesvirus 5
Human alphaherpesvirus 3 [5] = assay: Minimum Inhibitory Concentration (MIC) tested for activity against Varicella-Zoster Virus(VZV) using 07/1 (TK-) strain.; format: functional
[6] = Minimum cytotoxic concentration to reduce the HEL cell proliferation by 50%; format: cell-based; conditions: human, HEL cells; read-out: MCC
Human alphaherpesvirus 3 [7] = assay: Minimum Inhibitory Concentration (MIC) tested for activity against Varicella-Zoster Virus(VZV) using YS(TK+) strain.; format: functional
Cytomegalovirus [8] = assay: Minimum Inhibitory Concentration (MIC) tested for activity against Cytomegalovirus (CMV) using AD169 strain; format: functional; conditions: Human betaherpesvirus 5
[9] = Cytotoxic concentration required to cause microscopically detectable alteration of normal cell morphology of HeLa cells; format: cell-based; conditions: human, read-out: CC50
Human alphaherpesvirus 3 [10] = assay: Minimum Inhibition Concentration (MIC) for activity against Varicella-Zoster Virus(VZV) using YS/R (TK-) strain.; format: functional
[11] = Cytotoxic concentration required to cause microscopically detectable alteration of normal cell morphology of Vero cells; format: cell-based; conditions: chlorocebus sabaeus, read-out: CC50
Human alphaherpesvirus 3 [12] = assay: Minimum Inhibitory Concentration (MIC) tested for activity against Varicella-Zoster Virus(VZV) using YS/R (TK-) strain.; format: functional
[13] = Minimum cytotoxic concentration required to reduce human embryonic lung (HEL) cell proliferation by 50%; format: cell-based; conditions: human embryonic lung (HEL) cells, read-out: MCC
Human alphaherpesvirus 3 [14] = assay: Minimum Inhibition Concentration (MIC) for activity against Varicella-Zoster Virus(VZV) using YS(TK+) strain.; format: functional
Cytomegalovirus [15] = assay: Minimum Inhibition Concentration (MIC) for activity against Cytomegalovirus (CMV) using Davis strain; format: functional; conditions: Human betaherpesvirus 5
Cytomegalovirus [16] = assay: Minimum Inhibition Concentration( MIC) for activity against Cytomegalovirus (CMV) using AD169 strain; format: functional; conditions: Human betaherpesvirus 5
Human alphaherpesvirus 3 [17] = assay: Minimum Inhibition Concentration (MIC) for activity against Varicella-Zoster Virus(VZV) using OKA (TK+) strain; format: functional
Human alphaherpesvirus 3 [18] = assay: Minimum Inhibition Concentration (MIC) for activity against Varicella-Zoster Virus(VZV) using 07/1 (TK-) strain.; format: functional
Human alphaherpesvirus 3 [19] = assay: Minimum Inhibition Concentration( MIC) for activity against Varicella-Zoster Virus(VZV) using YS(TK+) strain.; format: functional

Cc1cccc2ncc(CSCCO)n12
CC50 [1]: 22 µg/mL (≈ 99 µM) | MIC (Human alphaherpesvirus 3 [2]): > 10 µg/mL | MCC [3]: 200 µg/mL | MIC (Cytomegalovirus [4]): > 10 µg/mL | MIC (Human alphaherpesvirus 3 [5]): > 10 µg/mL | CC50 [6]: 40 µg/mL (≈ 180 µM) | MIC (Human alphaherpesvirus 3 [7]): > 10 µg/mL | MIC (Cytomegalovirus [8]): > 10 µg/mL | MCC [9]: 100 µg/mL | MIC (Human alphaherpesvirus 3 [10]): > 10 µg/mL | MCC [11]: 200 µg/mL

Cc1cccn2c(CSCCO)cnc12
CC50 [1]: 9.5 µg/mL (≈ 42.7 µM) | MIC (Human alphaherpesvirus 3 [2]): 25 µg/mL (≈ 112 µM) | MCC [3]: 400 µg/mL | MIC (Cytomegalovirus [4]): 6 µg/mL (≈ 27 µM) | MIC (Human alphaherpesvirus 3 [5]): 15 µg/mL (≈ 67.5 µM) | CC50 [6]: 85 µg/mL (≈ 382 µM) | MIC (Human alphaherpesvirus 3 [7]): 10 µg/mL (≈ 45 µM) | MIC (Cytomegalovirus [8]): 7 µg/mL (≈ 31.5 µM) | MCC [9]: 40 µg/mL | MIC (Human alphaherpesvirus 3 [10]): > 10 µg/mL | MCC [11]: 400 µg/mL

COC(=O)c1nc2ccccn2c1CSCCO
CC50 [1]: 87 µg/mL (≈ 327 µM) | MIC (Human alphaherpesvirus 3 [2]): > 25 µg/mL | MIC (Human alphaherpesvirus 3 [12]): > 25 µg/mL | MCC [3]: > 400 µg/mL | MIC (Cytomegalovirus [4]): > 50 µg/mL | CC50 [13]: > 100 µg/mL | MIC (Human alphaherpesvirus 3 [14]): > 25 µg/mL | MIC (Cytomegalovirus [8]): > 50 µg/mL | MCC [9]: > 200 µg/mL | MCC [11]: > 400 µg/mL

Cc1ccn2c(CSCC(C)O)cnc2c1 (stereo not given)
MIC (Cytomegalovirus [15]): > 50 µg/mL | CC50 [1]: 60 µg/mL (≈ 254 µM) | MIC (Human alphaherpesvirus 3 [2]): > 100 µg/mL | MIC (Human alphaherpesvirus 3 [12]): 100 µg/mL (≈ 423 µM) | MCC [3]: > 400 µg/mL | CC50 [6]: > 100 µg/mL | MIC (Human alphaherpesvirus 3 [14]): > 100 µg/mL | MIC (Cytomegalovirus [8]): > 50 µg/mL | MCC [9]: 400 µg/mL | MCC [11]: > 400 µg/mL

Cc1cccn2c(CSCc3ccccc3)cnc12
MIC (Cytomegalovirus [15]): 0.2 µg/mL (≈ 0.745 µM) | CC50 [1]: 0.5 µg/mL (≈ 1.86 µM) | MCC [3]: 40 µg/mL | MIC (Cytomegalovirus [16]): 0.2 µg/mL (≈ 0.745 µM) | MIC (Human alphaherpesvirus 3 [17]): 0.9 µg/mL (≈ 3.35 µM) | CC50 [6]: 8 µg/mL (≈ 29.8 µM) | MIC (Human alphaherpesvirus 3 [18]): 0.4 µg/mL (≈ 1.49 µM) | MIC (Human alphaherpesvirus 3 [19]): 0.3 µg/mL (≈ 1.12 µM) | MCC [9]: 4 µg/mL | MIC (Human alphaherpesvirus 3 [10]): > 1 µg/mL | MCC [11]: 100 µg/mL

Cc1cccc2ncc(CSCC(O)CO)n12 (stereo not given)
CC50 [1]: 45 µg/mL (≈ 178 µM) | MIC (Human alphaherpesvirus 3 [2]): > 40 µg/mL | MIC (Human alphaherpesvirus 3 [12]): > 40 µg/mL | MCC [3]: 400 µg/mL | MIC (Cytomegalovirus [4]): 25 µg/mL (≈ 99.1 µM) | MIC (Human alphaherpesvirus 3 [5]): > 40 µg/mL | CC50 [6]: 75 µg/mL (≈ 297 µM) | MIC (Human alphaherpesvirus 3 [7]): > 40 µg/mL | MIC (Cytomegalovirus [8]): > 10 µg/mL | MCC [9]: > 100 µg/mL | MCC [11]: 400 µg/mL

CCOC(=O)CSCc1cnc2cc(C)ccn12
CC50 [1]: 37 µg/mL (≈ 140 µM) | MIC (Human alphaherpesvirus 3 [2]): > 40 µg/mL | MIC (Human alphaherpesvirus 3 [12]): > 40 µg/mL | MCC [3]: 200 µg/mL | MIC (Cytomegalovirus [4]): 23 µg/mL (≈ 87 µM) | MIC (Human alphaherpesvirus 3 [5]): > 40 µg/mL | CC50 [6]: 80 µg/mL (≈ 303 µM) | MIC (Human alphaherpesvirus 3 [7]): > 40 µg/mL | MIC (Cytomegalovirus [8]): 25 µg/mL (≈ 94.6 µM) | MCC [9]: > 100 µg/mL | MCC [11]: > 200 µg/mL

CC(O)CSCc1cnc2ncccn12 (stereo not given)
CC50 [1]: > 100 µg/mL | MIC (Human alphaherpesvirus 3 [2]): > 40 µg/mL | MCC [3]: > 400 µg/mL | MIC (Cytomegalovirus [4]): > 40 µg/mL | MIC (Human alphaherpesvirus 3 [5]): > 40 µg/mL | CC50 [6]: > 100 µg/mL | MIC (Human alphaherpesvirus 3 [7]): > 40 µg/mL | MIC (Cytomegalovirus [8]): > 40 µg/mL | MCC [9]: 400 µg/mL | MIC (Human alphaherpesvirus 3 [10]): > 40 µg/mL | MCC [11]: > 400 µg/mL

Nc1nc2c(ncn2COCCO)c(=O)[nH]1 [ACYCLOVIR]
MCC [3]: > 400 µg/mL | CC50 [6]: > 100 µg/mL

O=c1[nH]c(=O)n([C@H]2C[C@H](O)[C@@H](CO)O2)cc1/C=C/Br [BRIVUDINE]
MCC [3]: > 400 µg/mL | MIC (Human alphaherpesvirus 3 [17]): 0.0009 µg/mL (≈ 0.0027 µM) | CC50 [6]: > 50 µg/mL | MIC (Human alphaherpesvirus 3 [14]): 0.002 µg/mL (≈ 0.006 µM) | MIC (Human alphaherpesvirus 3 [18]): > 50 µg/mL | MCC [9]: > 400 µg/mL | MIC (Human alphaherpesvirus 3 [10]): > 20 µg/mL | MCC [11]: > 400 µg/mL

Nc1ccn(C[C@@H](CO)OCP(=O)(O)O)c(=O)n1.O.O [CIDOFOVIR]
MIC (Cytomegalovirus [4]): 0.05 µg/mL | MIC (Human alphaherpesvirus 3 [17]): 0.04 µg/mL | CC50 [6]: > 100 µg/mL | MIC (Human alphaherpesvirus 3 [14]): 0.033 µg/mL | MIC (Cytomegalovirus [8]): 0.05 µg/mL | MIC (Human alphaherpesvirus 3 [10]): 0.004 µg/mL

O=c1[nH]cnc2c1ncn2[C@H]1CC[C@@H](CO)O1 [DIDANOSINE]
CC50 [1]: > 100 µg/mL

Nc1nc2c(ncn2COC(CO)CO)c(=O)[nH]1 [GANCICLOVIR]
MCC [3]: > 100 µg/mL | MIC (Cytomegalovirus [4]): 0.5 µg/mL (≈ 1.96 µM) | MIC (Cytomegalovirus [8]): 0.5 µg/mL (≈ 1.96 µM)

NC(=O)c1ncn([C@@H]2O[C@H](CO)[C@@H](O)[C@H]2O)n1 [RIBAVIRIN]
MCC [3]: > 400 µg/mL | MCC [9]: > 200 µg/mL | MCC [11]: > 400 µg/mL

Cc1cn([C@H]2C[C@H](N=[N+]=[N-])[C@@H](CO)O2)c(=O)[nH]c1=O [ZIDOVUDINE]
CC50 [1]: > 125 µg/mL
